This is an account of results in US9409880B2, “Modulators of TLR3/dsRNA complex and uses thereof” (The Regents of the University of Colorado, a body corporate, priority 2011, dated 2016).

The target in assay [1] is T1, TLR4 (Mus musculus, UniProt Q9QUK6).
T1 construct: endogenous in cells; host or cells: RAW 264.7
T1 sequence (Q9QUK6 26-835): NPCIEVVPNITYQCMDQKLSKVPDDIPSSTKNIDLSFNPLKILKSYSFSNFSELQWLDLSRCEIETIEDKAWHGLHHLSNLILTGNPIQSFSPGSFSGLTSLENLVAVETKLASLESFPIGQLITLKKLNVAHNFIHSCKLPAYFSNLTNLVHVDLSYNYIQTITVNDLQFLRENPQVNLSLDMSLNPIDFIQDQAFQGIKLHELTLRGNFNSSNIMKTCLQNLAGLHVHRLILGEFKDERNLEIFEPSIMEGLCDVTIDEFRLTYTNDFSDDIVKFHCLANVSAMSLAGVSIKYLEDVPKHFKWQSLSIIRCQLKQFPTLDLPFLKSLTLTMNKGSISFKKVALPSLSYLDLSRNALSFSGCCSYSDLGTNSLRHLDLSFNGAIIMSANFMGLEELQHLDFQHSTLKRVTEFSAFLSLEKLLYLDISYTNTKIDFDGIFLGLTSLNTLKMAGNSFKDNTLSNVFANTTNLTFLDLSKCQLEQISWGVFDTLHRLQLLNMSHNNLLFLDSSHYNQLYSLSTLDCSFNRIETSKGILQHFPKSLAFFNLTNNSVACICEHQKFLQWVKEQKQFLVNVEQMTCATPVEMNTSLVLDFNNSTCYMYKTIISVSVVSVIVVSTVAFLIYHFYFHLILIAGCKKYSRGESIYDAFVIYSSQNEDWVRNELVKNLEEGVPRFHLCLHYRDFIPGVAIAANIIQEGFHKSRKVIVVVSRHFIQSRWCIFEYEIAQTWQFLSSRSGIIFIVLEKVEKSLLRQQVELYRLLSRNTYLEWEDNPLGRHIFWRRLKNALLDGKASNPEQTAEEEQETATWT
T1 sequence (Q9JHF9 19-160 partner): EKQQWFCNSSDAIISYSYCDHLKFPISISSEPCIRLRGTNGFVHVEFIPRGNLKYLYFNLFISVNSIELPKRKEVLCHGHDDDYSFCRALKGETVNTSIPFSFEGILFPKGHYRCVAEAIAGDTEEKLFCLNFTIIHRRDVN
Description: RAW264.7 cell nitric oxide TLR selectivity assay (LPS). Type of assay: cell-based. The note with it: 27 μM.

For assay [2], the target named is T2, TLR3 (Homo sapiens, UniProt O15455).
T2 construct: purchased R &D
T2 sequence (O15455 24-904): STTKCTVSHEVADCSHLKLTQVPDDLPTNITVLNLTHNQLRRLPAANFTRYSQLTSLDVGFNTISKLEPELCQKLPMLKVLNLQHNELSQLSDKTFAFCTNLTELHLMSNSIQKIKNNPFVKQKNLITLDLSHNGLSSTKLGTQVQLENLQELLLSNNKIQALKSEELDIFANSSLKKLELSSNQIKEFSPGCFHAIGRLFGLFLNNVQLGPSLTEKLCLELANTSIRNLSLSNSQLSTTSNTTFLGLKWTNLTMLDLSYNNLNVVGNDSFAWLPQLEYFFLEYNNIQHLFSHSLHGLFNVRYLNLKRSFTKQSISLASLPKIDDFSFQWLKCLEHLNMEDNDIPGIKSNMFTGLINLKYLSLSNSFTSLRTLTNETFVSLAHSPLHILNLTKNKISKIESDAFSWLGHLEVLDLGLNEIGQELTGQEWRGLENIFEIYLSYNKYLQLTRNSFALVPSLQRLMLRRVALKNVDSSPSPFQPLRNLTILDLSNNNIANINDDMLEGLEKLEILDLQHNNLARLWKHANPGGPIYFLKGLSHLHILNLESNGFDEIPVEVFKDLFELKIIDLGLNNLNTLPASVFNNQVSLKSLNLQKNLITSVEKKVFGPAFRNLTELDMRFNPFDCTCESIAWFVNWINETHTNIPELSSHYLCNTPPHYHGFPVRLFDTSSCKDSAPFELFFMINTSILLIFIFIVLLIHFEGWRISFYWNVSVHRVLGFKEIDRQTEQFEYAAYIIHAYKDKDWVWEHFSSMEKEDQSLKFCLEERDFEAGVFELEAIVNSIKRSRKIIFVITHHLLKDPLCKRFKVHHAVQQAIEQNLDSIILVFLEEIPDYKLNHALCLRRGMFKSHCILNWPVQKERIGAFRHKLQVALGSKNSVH
As to the kind of experiment: Fluorescence anisotropy assay, competition with Rhodamine labeled Poly IC. Type of assay: binding. As for the experimental part: The anisotropy of Rhodamine labeled Poly IC increased from approximately 0.116 to 0.171 upon addition of TLR3 (excitation=546 nm; emission=576 nm).
In 500 μL Tris buffer (pH=7.2) add 5 μL (1 μg/mL) Rhodamine labeled Poly IC (Invivogen), test the anisotropy at excitation of 546 nm and emission of 576 nm (Horiba Fluorolog 3). An addition 3 μL (20 μM) of TLR3 (R &D) was added in the buffer, then test the anisotropy again. Following, 4a was added in the buffer from 0 to 68 μM, and the fluorescence anisotropy was tested when the concentration was changed.

The subject of assay [3] is representative kinases. As to the kind of experiment: Kinase profiling. It is filed as biochemical. The note with it: 10 μM.

A word on the Ki: it is a measure of affinity in units of concentration, obtained from inhibition or displacement. `O=C(N[C@H](Cc1ccccc1)C(=O)O)c1sc2cc(F)ccc2c1Cl` [Compound 4a, (R)-2-(3-chloro-6-fluorobenzo[b]thiophene-2-carboxamido)-3-phenylpropanoic acid]: in assay [1], the “effect on TLR4 signaling” value is reported as “without significantly affecting other TLRs”. Moreover, the “TLR3 binding competition with dsRNA” value in assay [2] was “competes with dsRNA in binding to TLR3”. Further, the affinity in assay [2] (competes with dsRNA for binding to TLR3) corresponds to a Ki of 2.96 ± 0.32 µM. Further, the “anisotropy of Rhodamine labeled Poly IC” value in assay [2] (compound concentration increased to 68 μM) is reported as “decreased the anisotropy to background levels”. Further, the “effect on kinase activities” value in assay [3] is “did not significantly affect activities”.
